Data from patent US20250228865A1, “COMPOUNDS FOR ENHANCING READ THROUGH OF GENES CONTAINING PREMATURE TERMINATION CODONS AND METHODS FOR MAKING AND USING THE SAME” (Sanofi US Services Inc., priority 2022, published 2025).

Tests used:
[1] = system: recombinant human CFTR carrying the premature stop codon (PTC) mutation G542X; test: CFTR-PTC mutant translation readthrough, Nanoluc tagged CFTR luminescence (G542X cell line); type: cell-based; conditions: in combination with G418, G542X cell line; for CFTR G542X ACTIVITY Fold 10 μM G-418: fold over 10 μM G-418; for EC50: 16HBE cells
Procedure, shortened: (§1)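 Readthrough is the 48 h compound-induced luminescence increase scaled to that of maximal G418 (125-250 μM). Compounds run from 50 μM final in 2-fold steps, ±10 μM G418, on 16HBE lines carrying Nanoluc-tagged CFTR G542X (extracellular loop 4 tag) or R1162X (C-terminal tag), with 3 μM VX-809 present.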

[2] = system: recombinant human CFTR carrying the premature stop codon (PTC) mutation R1162X; test: CFTR-PTC mutant translation readthrough, Nanoluc tagged CFTR luminescence (R1162X cell line); type: cell-based; conditions: for CFTR R1162X ACTIVITY Fold 10 μM G-418: fold over 10 μM G-418, in combination with G418; for EC50: in combination with G418, 16HBE cells, read-out: CFTR R1162X ACTIVITY EC50
Procedure, shortened: as §1

Structure (SMILES) | EC50 [1] [nM] | EC50 [2] [nM] | CFTR G542X ACTIVITY Fold 10 μM G-418 [1] | CFTR R1162X ACTIVITY Fold 10 μM G-418 [2]
O=C1CN(c2ncc(OCc3c(Cl)cccc3Cl)cn2)CC(CO)N1 (centres unmarked) | 1000 to 10000 | 1000 to 10000 | A′ (A′ = ≥10X) | A′ (A′ = ≥10X)
O=C(O)C1CCN(c2ncc(OCc3c(Cl)cccc3C(F)(F)F)cn2)CC1 [1-(5-{[2-chloro-6-(trifluoromethyl)phenyl]methoxy}pyrimidin-] | 1000 to 10000 | 1000 to 10000 | C′ (C′ = <5X) | C′ (C′ = <5X)
OCc1cn(-c2ccc(CCc3c(Cl)cccc3Cl)cc2)cn1 [[1-[4-[2-(2,6-dichlorophenyl)ethyl]phenyl]imidazol-4-yl]methanol] | 1000 to 10000 | > 10000 | B′ (B′ = ≥5X to <10X) | A′ (A′ = ≥10X)
OCc1ncn(-c2ncc(OCc3c(Cl)cccc3Cl)cn2)n1 | 1000 to 10000 | 1000 to 10000 | C′ (C′ = <5X) | C′ (C′ = <5X)
N#Cc1ncn(-c2ncc(OCc3c(Cl)cccc3Cl)cn2)n1 [1-[5-[(2,6-dichlorophenyl)methoxy]pyrimidin-2-yl]-1,2,4-triazole-3-carbonitrile] | 1000 to 10000 | 1000 to 10000 | A′ (A′ = ≥10X) | C′ (C′ = <5X)
FC(F)(F)c1cccc(Cl)c1COc1cnc(-n2cncn2)nc1 [5-[[2-chloro-6-(trifluoromethyl)phenyl]methoxy]-2-(1,2,4-triazol-1-yl)pyrimidine] | < 1000 | 1000 to 10000 | A′ (A′ = ≥10X) | A′ (A′ = ≥10X)
Cc1cccc(C(F)(F)F)c1COc1cnc(N2CCO[C@@H](CN)C2)nc1 | < 1000 | < 1000 | A′ (A′ = ≥10X) | A′ (A′ = ≥10X)
CN1C(=O)CN(c2ccc(OCc3c(Cl)cccc3C(F)(F)F)cn2)C1=O | < 1000 | < 1000 | A′ (A′ = ≥10X) | A′ (A′ = ≥10X)
Cc1cccc(C(F)(F)F)c1COc1cnc(N2CCC(O)CC2)nc1 [1-[5-[[2-methyl-6-(trifluoromethyl)phenyl]methoxy]pyrimidin-2-yl]piperidin-4-ol] | < 1000 | < 1000 | A′ (A′ = ≥10X) | A′ (A′ = ≥10X)
Clc1cccc(Cl)c1COc1cnc(-n2ncc(-c3ccccn3)n2)nc1 [5-[(2,6-dichlorophenyl)methoxy]-2-[4-(2-pyridyl)triazol-2-yl]pyrimidine] | 1000 to 10000 | 1000 to 10000 | A′ (A′ = ≥10X) | A′ (A′ = ≥10X)
O=C1CN(c2ccc(OCc3c(Cl)cccc3C(F)(F)F)cn2)C(=O)N1 | < 1000 | < 1000 | A′ (A′ = ≥10X) | A′ (A′ = ≥10X)
OCc1cc(-c2ccc(OCc3c(Cl)cccc3Cl)cn2)no1 [[3-[5-[(2,6-dichlorophenyl)methoxy]-2-pyridyl]isoxazol-5-yl]methanol] | < 1000 | 1000 to 10000 | A′ (A′ = ≥10X) | A′ (A′ = ≥10X)
Cc1cccc(C(F)(F)F)c1COc1cnc(N2CCC(N)CC2)nc1 | < 1000 | 1000 to 10000 | A′ (A′ = ≥10X) | A′ (A′ = ≥10X)
CN1CCN(c2ncc(OCc3c(Cl)cccc3Cl)cn2)CC1=O [4-[5-[(2,6-dichlorophenyl)methoxy]pyrimidin-2-yl]-1-methyl-piperazin-2-one] | 1000 to 10000 | 1000 to 10000 | A′ (A′ = ≥10X) | A′ (A′ = ≥10X)
OCCC1(O)CCN(c2ncc(OCc3c(Cl)cccc3Cl)cn2)CC1 | < 1000 | < 1000 | A′ (A′ = ≥10X) | A′ (A′ = ≥10X)
OCc1nc(-c2ncc(OCc3c(Cl)cccc3Cl)cn2)co1 [[4-[5-[(2,6-dichlorophenyl)methoxy]pyrimidin-2-yl]oxazol-2-yl]methanol] | 1000 to 10000 | 1000 to 10000 | A′ (A′ = ≥10X) | A′ (A′ = ≥10X)
CN(C)C(=O)N1CCN(c2ncc(OCc3c(Cl)cccc3Cl)cn2)CC1 | < 1000 | < 1000 | B′ (B′ = ≥5X to <10X) | A′ (A′ = ≥10X)
Cc1cccc(C(F)(F)F)c1COc1cnc(N2CCO[C@H](CN)C2)nc1 | < 1000 | < 1000 | A′ (A′ = ≥10X) | A′ (A′ = ≥10X)
CN(CC1CNCCO1)c1ncc(OCc2c(Cl)cccc2Cl)cn1 (centres unmarked) | 1000 to 10000 | 1000 to 10000 | C′ (C′ = <5X) | C′ (C′ = <5X)
Cc1ccc(C(F)(F)F)c(COc2ccc(-n3cc(CO)nn3)cc2)c1F | 1000 to 10000 | > 10000 | B′ (B′ = ≥5X to <10X) | B′ (B′ = ≥5X to <10X)
Clc1cccc(Cl)c1COc1ccc(-n2cncn2)cc1 [1-[4-[(2,6-dichlorophenyl)methoxy]phenyl]-1,2,4-triazole] | 1000 to 10000 | 1000 to 10000 | A′ (A′ = ≥10X) | A′ (A′ = ≥10X)

The next lines start with results.

EC50 [1] [nM] | EC50 [2] [nM] | Structure (SMILES) | CFTR G542X ACTIVITY Fold 10 μM G-418 [1] | CFTR R1162X ACTIVITY Fold 10 μM G-418 [2]
1000 to 10000 | 1000 to 10000 | O=C1OC(CO)CN1c1ccc(OCc2c(Br)cccc2Br)cc1 (centres unmarked) [3-[4-[(2,6-dibromophenyl)methoxy]phenyl]-5-(hydroxymethyl)oxazolidin-2-one] | A′ (A′ = ≥10X) | A′ (A′ = ≥10X)
1000 to 10000 | 1000 to 10000 | O=C1OCC(CO)=C1c1ccc(OCc2c(Cl)cccc2Cl)cc1 [4-[4-[(2,6-dichlorophenyl)methoxy]phenyl]-3-(hydroxymethyl)-2H-furan-5-one] | B′ (B′ = ≥5X to <10X) | B′ (B′ = ≥5X to <10X)
1000 to 10000 | 1000 to 10000 | O=C1OC(CO)CN1c1ccc(OCc2c(Cl)cccc2C2CC2)cc1 (centres unmarked) | A′ (A′ = ≥10X) | A′ (A′ = ≥10X)
1000 to 10000 | 1000 to 10000 | O=C1OC(CO)CN1c1ncc(OCc2c(Cl)cccc2C(F)(F)F)cn1 (centres unmarked) | A′ (A′ = ≥10X) | A′ (A′ = ≥10X)
< 1000 | 1000 to 10000 | OCc1cn(-c2ccc(OCc3c(Cl)cccc3Cl)cc2)cn1 [[1-[4-[(2,6-dichlorophenyl)methoxy]phenyl]imidazol-4-yl]methanol] | A′ (A′ = ≥10X) | A′ (A′ = ≥10X)
> 10000 | > 10000 | COc1cccc(Br)c1COc1ccc(N2CC(CO)OC2=O)cc1 (centres unmarked) | A′ (A′ = ≥10X) | B′ (B′ = ≥5X to <10X)
1000 to 10000 | 1000 to 10000 | O=C1OCCN1c1ccc(OCc2c(Cl)cccc2Cl)cc1 [3-[4-[(2,6-dichlorophenyl)methoxy]phenyl]oxazolidin-2-one] | A′ (A′ = ≥10X) | B′ (B′ = ≥5X to <10X)
> 10000 | > 10000 | Cc1cccc(C)c1COc1ccc(N2CC(CO)OC2=O)c2ccccc12 (centres unmarked) [3-[4-[(2,6-dimethylphenyl)methoxy]-1-naphthyl]-5-(hydroxymethyl)oxazolidin-2-one] |  | C′ (C′ = <5X)
1000 to 10000 | 1000 to 10000 | Cc1cccc(C(F)(F)F)c1COc1ccc(N2CC(CO)OC2=O)cc1 (centres unmarked) | A′ (A′ = ≥10X) | A′ (A′ = ≥10X)
